Reference: patent US20170298055A1, “sGC STIMULATORS” (IRONWOOD PHARMACEUTICALS, INC., priority 2014, published 2017)

Target: T1, soluble guanylate cyclase (sGC) (Homo sapiens, UniProt Q02108+Q02153)
T1 construct: endogenously expressing soluble guanylate cyclase (sGC); endogenous in cells; host or cells: HEK293
T1 sequence (Q02153 1-619): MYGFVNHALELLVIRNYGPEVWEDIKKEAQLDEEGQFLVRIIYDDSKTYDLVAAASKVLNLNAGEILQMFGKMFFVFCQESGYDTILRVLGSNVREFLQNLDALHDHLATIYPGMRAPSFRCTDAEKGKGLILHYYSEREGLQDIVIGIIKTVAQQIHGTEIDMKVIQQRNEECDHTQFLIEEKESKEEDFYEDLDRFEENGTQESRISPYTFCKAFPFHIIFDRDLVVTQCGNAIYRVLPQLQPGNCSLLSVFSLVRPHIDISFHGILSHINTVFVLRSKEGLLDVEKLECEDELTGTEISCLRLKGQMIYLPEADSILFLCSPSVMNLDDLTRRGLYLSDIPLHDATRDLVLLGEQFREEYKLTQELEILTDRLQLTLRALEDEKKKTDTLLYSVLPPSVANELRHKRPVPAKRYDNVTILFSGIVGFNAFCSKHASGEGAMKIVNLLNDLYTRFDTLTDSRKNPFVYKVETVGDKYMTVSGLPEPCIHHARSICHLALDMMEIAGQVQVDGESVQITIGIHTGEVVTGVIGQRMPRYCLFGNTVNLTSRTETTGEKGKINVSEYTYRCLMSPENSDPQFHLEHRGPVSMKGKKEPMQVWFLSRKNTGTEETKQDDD
T1 sequence (Q02108 1-690): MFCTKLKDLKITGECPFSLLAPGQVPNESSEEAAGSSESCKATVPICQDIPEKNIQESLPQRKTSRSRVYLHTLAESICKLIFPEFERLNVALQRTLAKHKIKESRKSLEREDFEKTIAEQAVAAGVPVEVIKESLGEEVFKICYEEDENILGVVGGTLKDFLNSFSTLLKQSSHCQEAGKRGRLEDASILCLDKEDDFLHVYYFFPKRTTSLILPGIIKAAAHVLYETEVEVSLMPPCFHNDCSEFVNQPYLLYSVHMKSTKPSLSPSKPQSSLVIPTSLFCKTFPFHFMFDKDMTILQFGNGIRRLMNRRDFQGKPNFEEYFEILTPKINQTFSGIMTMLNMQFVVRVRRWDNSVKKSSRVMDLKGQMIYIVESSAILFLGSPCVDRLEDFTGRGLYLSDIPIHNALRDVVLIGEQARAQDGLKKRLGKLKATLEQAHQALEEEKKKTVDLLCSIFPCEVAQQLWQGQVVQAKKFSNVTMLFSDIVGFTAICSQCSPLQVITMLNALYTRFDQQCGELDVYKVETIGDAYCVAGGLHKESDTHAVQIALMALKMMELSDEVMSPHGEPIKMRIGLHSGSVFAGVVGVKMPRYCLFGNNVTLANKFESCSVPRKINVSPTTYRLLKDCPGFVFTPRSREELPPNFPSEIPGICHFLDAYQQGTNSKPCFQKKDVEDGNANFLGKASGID
Experiment: sGC-HEK-cGMP assay, LC/MS detection, updated conditions with DETA-NONOate (Example 2B)
Assay type: cell-based
Conditions: read-out: sGC_HEK_LCMS EC50/IC50 Abs (Norm) (nM) Binned
Experimental: Human embryonic kidney cells (HEK293), endogenously expressing soluble guanylate cyclase (sGC), were used to evaluate the activity of test compounds. Compounds stimulating the sGC enzyme should cause an increase in the intracellular concentration of cGMP. HEK 293 cells were seeded in Dulbecco's Modification of Eagle's Medium supplemented with fetal bovine serum (10% final) and penicillin (100 U/mL)/streptomycin (100 μg/mL) in a 50 μL volume at a density of 1.5×10^4 cells/well in a poly-D-lysine coated 384 well flat bottom plate. Cells were incubated overnight at 37° C. in a humidified chamber with 5% CO2. Medium was aspirated and cells were washed with 1× Hank's Buffered Saline Salt Solution (50 μL). Cells were then incubated for 15 minutes at 37° C. with 50 μL of a 0.5 mM 3-isobutyl-1-methylxanthine (IBMX) solution. Test article and Diethylenetriamine NONOate (DETA-NONOate) solutions (x μM concentration for test article solution and 10 μM concentration for DETA-NONOate solution; wherein x is one of the following concentrations);
were then added to the assay mixture and the resulting mixture incubated at 37° C. for 20 minutes. […]
cGMP concentrations were determined from each sample using the LCMS conditions below (Table 2B) and calculated standard curve. […]

OCCOc1nc(-c2cc(-c3ccon3)n(Cc3ccccc3F)n2)ncc1F [Compound I-1]
EC50: 100 to 1000 nM

CN(C)CCOc1nc(-c2cc(-c3ccon3)n(Cc3ccccc3F)n2)ncc1F [Compound I-2]
EC50: > 1000 nM
